SMILES strings stand for the structures. Some results are limits rather than exact numbers.

T1 sequence (Q05397 whole entry): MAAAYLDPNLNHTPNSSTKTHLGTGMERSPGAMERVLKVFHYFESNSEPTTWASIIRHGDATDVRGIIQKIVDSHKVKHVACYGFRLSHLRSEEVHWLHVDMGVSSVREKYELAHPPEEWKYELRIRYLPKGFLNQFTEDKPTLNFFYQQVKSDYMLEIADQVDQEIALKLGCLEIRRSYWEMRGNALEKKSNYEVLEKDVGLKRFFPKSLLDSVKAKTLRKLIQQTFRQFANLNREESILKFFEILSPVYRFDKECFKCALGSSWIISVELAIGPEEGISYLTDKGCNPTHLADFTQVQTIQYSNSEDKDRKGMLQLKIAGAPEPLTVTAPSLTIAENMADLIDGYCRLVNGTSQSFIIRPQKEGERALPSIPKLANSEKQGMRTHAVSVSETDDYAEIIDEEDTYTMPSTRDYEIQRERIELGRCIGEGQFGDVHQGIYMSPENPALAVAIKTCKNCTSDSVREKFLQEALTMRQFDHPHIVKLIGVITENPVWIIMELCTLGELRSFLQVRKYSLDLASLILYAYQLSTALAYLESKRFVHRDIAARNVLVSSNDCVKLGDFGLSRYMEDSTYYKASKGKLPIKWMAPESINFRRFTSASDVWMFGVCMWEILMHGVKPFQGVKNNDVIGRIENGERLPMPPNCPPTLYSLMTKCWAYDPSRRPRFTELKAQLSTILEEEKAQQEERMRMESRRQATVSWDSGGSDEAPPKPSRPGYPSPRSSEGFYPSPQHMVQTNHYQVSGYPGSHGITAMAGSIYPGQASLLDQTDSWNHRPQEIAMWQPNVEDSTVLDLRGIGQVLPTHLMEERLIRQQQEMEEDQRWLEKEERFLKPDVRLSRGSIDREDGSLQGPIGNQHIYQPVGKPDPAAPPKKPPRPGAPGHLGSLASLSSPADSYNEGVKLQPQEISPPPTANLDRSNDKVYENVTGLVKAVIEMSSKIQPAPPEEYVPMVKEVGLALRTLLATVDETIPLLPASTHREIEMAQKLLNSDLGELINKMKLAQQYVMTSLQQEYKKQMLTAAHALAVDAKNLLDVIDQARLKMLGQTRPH

The first assay concerns the target T1, FAK (Homo sapiens, UniProt Q05397). The assay is described as follows: biochemical.
Details: not given
Turning to `CCOP(=O)(Cc1ccc(Nc2ncc(C(F)(F)F)c(Nc3ccc(OC(C)C)c4c3C(=O)N(C)C4)n2)c(OC)c1)OCC` [Example 211, Diethyl (3-methoxy-4-{[4-{[2-methyl-3-oxo-7-(propan-2-yloxy)-2,3-dihydro-1H-isoindol-4-yl]amino}-5-(trifluoromethyl)pyrimidin-2-yl]amino}benzyl)phosphonate], the half-maximal inhibitory concentration (IC50) – broadly, the concentration that inhibits the measured activity by half – is less than 1000 nM.
Still for that read-out and setting: the result for `CCOP(=O)(Cc1ccc(Nc2ncc(C(F)(F)F)c(Nc3ccc(N4CCS(=O)(=O)CC4)c4c3C(=O)N(C)C4)n2)cc1)OCC` [Example 212, Diethyl (4-{[4-{[7-(1,1-dioxidothiomorpholin-4-yl)-2-methyl-3-oxo-2,3-dihydro-1H-isoindol-4-yl]amino}-5-(trifluoromethyl)pyrimidin-2-yl]amino}benzyl)phosphonate] reads less than 1000 nM.
The same measure, in the same setting: the result for `CCOP(=O)(Cc1ccc(Nc2ncc(C(F)(F)F)c(Nc3ccc(N4CCOCC4)c4c3C(=O)N(C)C4)n2)c(OC)c1)OCC` [Example 215, Diethyl (3-methoxy-4-{[4-{[2-methyl-7-(morpholin-4-yl)-3-oxo-2,3-dihydro-1H-isoindol-4-yl]amino}-5-(trifluoromethyl)pyrimidin-2-yl]amino}benzyl)phosphonate] reads less than 1000 nM.
Same read-out and setting: in the case of `CCOP(=O)(Cc1ccc(Nc2ncc(C(F)(F)F)c(Nc3ccc(N4CCN(C)CC4)c4c3C(=O)N(C)C4)n2)c(OC)c1)OCC` [Example 224, Diethyl (3-methoxy-4-{[4-{[2-methyl-7-(4-methylpiperazin-1-yl)-3-oxo-2,3-dihydro-1H-isoindol-4-yl]amino}-5-(trifluoromethyl)pyrimidin-2-yl]amino}benzyl)phosphonate] it was less than 1000 nM; in that of `CCOP(=O)(Cc1ccc(Nc2ncc(C(F)(F)F)c(Nc3ccc(N4CCN(CC(=O)OC(C)(C)C)CC4)c4c3C(=O)N(C)C4)n2)cc1)OCC` [Example 225, tert-Butyl [4-(7-{[2-({4-[(diethoxyphosphoryl)methyl]phenyl}amino)-5-(trifluoromethyl)pyrimidin-4-yl]amino}-2-methyl-1-oxo-2,3-dihydro-1H-isoindol-4-yl)piperazin-1-yl]acetate], less than 1000 nM; in that of `CCOP(=O)(Cc1ccc(Nc2ncc(C(F)(F)F)c(Nc3ccc(N4CCN(CC(=O)OC(C)(C)C)CC4)c4c3C(=O)N(C)C4)n2)c(OC)c1)OCC` [Example 226, tert-Butyl [4-(7-{[2-({4-[(diethoxyphosphoryl)methyl]-2-methoxyphenyl}amino)-5-(trifluoromethyl)pyrimidin-4-yl]amino}-2-methyl-1-oxo-2,3-dihydro-1H-isoindol-4-yl)piperazin-1-yl]acetate], less than 1000 nM.
As to `CCOP(=O)(Cc1ccc(Nc2ncc(C(F)(F)F)c(Nc3ccc(N4CC(O)C4)c4c3C(=O)N(C)C4)n2)cc1)OCC` [Example 227, Diethyl (4-{[4-{[7-(3-hydroxyazetidin-1-yl)-2-methyl-3-oxo-2,3-dihydro-1H-isoindol-4-yl]amino}-5-(trifluoromethyl)pyrimidin-2-yl]amino}benzyl)phosphonate], the IC50 is less than 1000 nM.
In turn, `CCOP(=O)(Cc1ccc(Nc2ncc(C(F)(F)F)c(Nc3ccc([C@H]4CC[C@H](OP(=O)(O)O)CC4)c4c3C(=O)N(C)C4)n2)c(OC)c1)OCC` [Example 228, Diethyl (3-methoxy-4-{[4-({2-methyl-3-oxo-7-[trans-4-(phosphonooxy)cyclohexyl]-2,3-dihydro-1H-isoindol-4-yl}amino)-5-(trifluoromethyl)pyrimidin-2-yl]amino}benzyl)phosphonate] displayed a half-maximal inhibitory concentration (IC50) of less than 1000 nM.
Same read-out and setting: in the case of `CCOP(=O)(Cc1ccc(Nc2ncc(C(F)(F)F)c(Nc3ccc(C4=CCNCC4)c4c3C(=O)N(C)C4)n2)cc1)OCC` [Example 246, Diethyl (4-{[4-{[2-methyl-3-oxo-7-(1,2,3,6-tetrahydropyridin-4-yl)-2,3-dihydro-1H-isoindol-4-yl]amino}-5-(trifluoromethyl)pyrimidin-2-yl]amino}benzyl)phosphonate] it was less than 1000 nM; in that of `CCOP(=O)(Cc1ccc(Nc2ncc(C(F)(F)F)c(Nc3ccc(C4=CCN(C)CC4)c4c3C(=O)N(C)C4)n2)cc1)OCC` [Example 248, Diethyl (4-{[4-{[2-methyl-7-(1-methyl-1,2,3,6-tetrahydropyridin-4-yl)-3-oxo-2,3-dihydro-1H-isoindol-4-yl]amino}-5-(trifluoromethyl)pyrimidin-2-yl]amino}benzyl)phosphonate], less than 1000 nM; in that of `CCOP(=O)(O)Cc1ccc(Nc2ncc(C(F)(F)F)c(Nc3ccc(N4CCN(C)CC4)c4c3C(=O)N(C)C4)n2)cc1` [Example 249, Ethyl hydrogen (4-{[4-{[2-methyl-7-(4-methylpiperazin-1-yl)-3-oxo-2,3-dihydro-1H-isoindol-4-yl]amino}-5-(trifluoromethyl)pyrimidin-2-yl]amino}benzyl) phosphonate], less than 1000 nM.
On the same count and under the same terms, the result for `CCOP(=O)(Cc1ccc(Nc2ncc(C(F)(F)F)c(Nc3ccc(N4CCN(CC(=O)O)CC4)c4c3C(=O)N(C)C4)n2)c(OC)c1)OCC` [Example 252, [4-(7-{[2-({4-[(Diethoxyphosphoryl)methyl]-2-methoxyphenyl}amino)-5-(trifluoromethyl)pyrimidin-4-yl]amino}-2-methyl-1-oxo-2,3-dihydro-1H-isoindol-4-yl)piperazin-1-yl]acetic acid] reads less than 1000 nM.
The same measure, in the same setting: the result for `CCOP(=O)(O)Cc1ccc(Nc2ncc(C(F)(F)F)c(Nc3ccc(N4CCN(C)CC4)c4c3C(=O)N(C)C4)n2)c(OC)c1` [Example 254, Ethyl hydrogen (3-methoxy-4-{[4-{[2-methyl-7-(4-methylpiperazin-1-yl)-3-oxo-2,3-dihydro-1H-isoindol-4-yl]amino}-5-(trifluoromethyl)pyrimidin-2-yl]amino}benzyl)phosphonate] reads less than 1000 nM.

A further assay addresses T1, FAK. The assay is described as follows: Cell-based capture ELISA for inhibition of FAK autophosphorylation [pY397] in MiaPaCa2 cells. Particulars: MIA-PaCa2 cells, + 50% mouse plasma (Table 2); read-out: Mean FAK Cell Mechanistic IC50 + 50% mP MIA-PaCa2. As for the experimental part: Cell-Based Assays for Inhibition of FAK Autophosphorylation: MiaPaCa2 and U87MG
ELISA kit from Invitrogen (KHO0441).
Reagents Provided in Biosource FAK [pY397]
The cells were then suspended in cell assay medium.
For orientation: ELISA stands for enzyme-linked immunosorbent assay.
`CCOP(=O)(Cc1ccc(Nc2ncc(C(F)(F)F)c(Nc3ccc(-c4cnn(C5CC(O)C5)c4)c4c3C(=O)N(C)C4)n2)c(OC)c1)OCC` (stereo not shown) [Example 74, Diethyl (4-{[4-({7-[1-(3-hydroxycyclobutyl)-1H-pyrazol-4-yl]-2-methyl-3-oxo-2,3-dihydro-1H-isoindol-4-yl}amino)-5-(trifluoromethyl)pyrimidin-2-yl]amino}-3-methoxybenzyl)phosphonate]: the IC50 is less than 1000 nM.

Staying with this assay, now noted: MIA-PaCa2 cells, + 50% mouse plasma (Table 3); read-out: Mean FAK Cell Mechanistic IC50 + 50% mP MIA-PaCa2.
In the case of `CCOP(=O)(Cc1ccc(Nc2ncc(C(F)(F)F)c(Nc3ccc(C4=CCN(C(N)=O)CC4)c4c3C(=O)N(C)C4)n2)c(OC)c1)OCC` [Example 99, Diethyl (4-{[4-{[7-(1-carbamoyl-1,2,3,6-tetrahydropyridin-4-yl)-2-methyl-3-oxo-2,3-dihydro-1H-isoindol-4-yl]amino}-5-(trifluoromethyl)pyrimidin-2-yl]amino}-3-methoxybenzyl)phosphonate], the IC50 is less than 1000 nM.

Still in this assay, the particulars now being: read-out: Mean FAK Cell Mechanistic IC50 + 50% mP MIA-PaCa2; MIA-PaCa2 cells, + 50% mouse plasma (Table 3).
Take `CCOP(=O)(Cc1ccc(Nc2ncc(C(F)(F)F)c(Nc3ccc(-c4cnn(CC(C)(C)O)c4)c4c3C(=O)N(C)C4)n2)c(OC)c1)OCC` [Example 98, Diethyl (4-{[4-({7-[1-(2-hydroxy-2-methylpropyl)-1H-pyrazol-4-yl]-2-methyl-3-oxo-2,3-dihydro-1H-isoindol-4-yl}amino)-5-(trifluoromethyl)pyrimidin-2-yl]amino}-3-methoxybenzyl)phosphonate]: the IC50 was less than 1000 nM.

Source of the values: US9096624B2 (OSI Pharmaceuticals, LLC, priority 2009, dated 2015).
